{"source": "patent US10399970B2", "about": "“Pyrridinobenzodiazepine and benzopyrridodiazecine compounds” (FEMTOGENIX LIMITED, priority 2015, dated 2019)", "key": {"cancer cell lines": {"test_system": "cancer cell lines", "details": "some cancer cell lines; cited from earlier work"}, "[1]": {"details": "Phase I clinical evaluation; cited from earlier work"}, "[2]": {"test_system": "MDA MB231 (triple negative human breast cancer)", "assay": "Cytotoxicity analysis by MTT assay", "type": "cell-based", "details": "MDA-MB-231, 96 hours exposure, read-out: IC50 (nanomolar) MDA MB 231 (Triple negative breast cancer cell line)", "description": "MDA MB231 (triple negative human breast cancer) was obtained from the American Type Culture Collection. The cell-line was maintained in monolayer culture in 75 cm^2 flasks (TPP, Switzerland) under a humidified 5% CO2 atmosphere at 37° C. The MDA MB231 cell line was maintained in high glucose DMEM (4.5 g\\l; Invitrogen), foetal bovine serum (10%, Biosera UK), non-essential amino acids (ix; Invitrogen), L-glutamine (2 mM; Invitrogen) and Penicillin-Streptomycin (1% v/v, Invitrogen). For passaging, cells were washed with PBS (GIBCO 14040, Invitrogen, UK), incubated with trypsine (GIBCO 25300, Invitrogen, UK), and re-seeded into fresh medium. For seeding, cells were counted using a Neubauer haemocytometer (Assistant, Germany) by microscopy (Nikon, USA) on a non-adherent suspension of cells that were washed in PBS, trypsinised, centrifuged at 8° C. at 8000 rpm for 5 min and re-suspended in fresh medium.\nThe cells were grown in normal cell culture conditions at 37° C. under a 5% CO2 humidified atmosphere using appropriate medium. […] After 96 h of continuous exposure to each compound, the cytotoxicity was determined using the 3-(4,5-Dimethylthiazol-2-yl)-2,5-diphenyltetrazolium bromide (MTT) (Lancaster Synthesis Ltd, UK) colorimetric assay. Absorbance was quantified by spectrophotometry at X=570 nm (Envision Plate Reader, PerkinElmer, USA). […]"}}, "data": [{"smiles": "COC(=O)c1cc(-c2ccc(NC(=O)c3nc(NC(=O)CCCOc4cc5c(cc4OC)C(=O)N4CCC[C@H]4C=N5)cn3C)cc2)cn1C", "values": [{"measurement": "cytotoxic activity range", "setting": "cancer cell lines", "result": "femtomolar range"}]}, {"smiles": "C=C1C[C@H]2C=Nc3cc(OCCCOc4cc5c(cc4OC)C(=O)N4CC(=C)C[C@H]4C=N5)c(OC)cc3C(=O)N2C1", "values": [{"measurement": "adverse effects", "setting": "[1]", "result": "lower-limb edema and fatigue"}]}, {"smiles": "COC(=O)c1cc2cc(NC(=O)c3cc(NC(=O)CO[C@@H]4CCN5C(=O)c6cc(OC)c(OC)cc6N=C[C@@H]5C4)cn3C)ccc2s1", "note": "[Compound 23, Methyl 5-(4-(2-(((6aS,8R)-2,3-dimethoxy-12-oxo-6a,7,8,9,10,12-hexahydrobenzo[e]pyrido[1,2-a][1,4]diazepin-8-yl)oxy)acetamido)-1-methyl-1H-pyrrole-2-carboxamido)benzo[b]thiophene-2-carboxylate]", "values": [{"measurement": "IC50", "setting": "[2]", "result": 221, "unit": "nM"}]}]}
